For series [1], the system named is Neutrophil. As to the kind of experiment: Inhibition of FMLP/CB-induced superoxide anion generation in human neutrophils by ferricytochrome c reduction method. The series is classed as functional, cell-based.
Series [2] concerns Neutrophil. As to the kind of experiment: Inhibition of FMLP/CB-induced superoxide anion generation in human neutrophils at 10 ug/ml by ferricytochrome c reduction method. It is filed as functional.
The test system of series [3] is Neutrophil. Put plainly: Inhibition of FMLP/CB-induced elastase release in human neutrophils at 10 ug/ml after 5 mins by spectrophotometry. The series is classed as functional.
Series [4] has as its system Neutrophil. As to the kind of experiment: Inhibition of FMLP/CB-induced elastase release in human neutrophils after 5 mins by spectrophotometry. The series is classed as functional, cell-based.
Series [5] relates to RAW264.7. As to the kind of experiment: Inhibition of NO production in LPS/IFN-gamma activated mouse RAW264.7 cells after 24 hrs by Griess assay. It is filed as functional, cell-based.
The nature of series [6]: Cytotoxicity against human neutrophils at 10 ug/ml after 15 mins by LDH release assay. Conditions: neutrophil, 0.25 h; call rule not given here. It is filed as cell-based.
The mark [7] stands for this setting: Mus musculus, RAW264.7, 24 h, read-out: IC50.

In brackets after ≈: the same amount, converted by molar mass.

In the case of `CC1(C)C[C@H]2[C@H]1CC[C@@]1(C)C[C@]2(O)CC[C@@H]1O`, the IC50 in series [1] was greater than 10 µg/mL; in series [4] it was greater than 10 µg/mL; in series [5] (raw264.7) it was “Not Active”. The inhibition at 10 µg/mL in series [2] was found to be 10.2%; in series [3], 5.93%.
For the compound `C[C@]1(CO)[C@H]2CCC3=C[C@@](C)(C(O)CO)CC[C@H]3[C@]2(C)CC[C@H]1O` (stereo partly drawn), the IC50 in series [1] and in series [4] was greater than 10 µg/mL throughout. The inhibition at 10 µg/mL in series [2] is 17.8%; in series [3], -0.74%.
`C=C(C)C(=O)O[C@H]1[C@H]2C(=C)C(=O)O[C@@H]2/C=C(\CO)CC/C=C(/C=O)[C@H]1O`: the IC50 in series [1] was greater than 10 µg/mL; in series [4] it was greater than 10 µg/mL; in series [5] (raw264.7), “Not Active”. The inhibition at 10 µg/mL in series [2] came to 9.01%; in series [3] it was 20.8%.
On to `C[C@@]12CCC[C@@](C)(C(=O)O)[C@H]1CC[C@@]13C[C@H](CC[C@H]12)[C@H](C(=O)O)C3`, for which the IC50 is 5.59 µg/mL (≈ 16.7 µM) in series [1] and greater than 10 µg/mL in series [4]. For the same compound, in series [6], the Activity result is on record as “Non-toxic”. In addition, the results for the inhibition at 10 µg/mL in series [2] and in series [3] were 69.6% and 31.5%, respectively.
In the same order, the values of `CC(=O)OC[C@@]1(C(=O)O)CCC[C@@]2(C)[C@@H]3CC[C@H]4C[C@@]3(CC[C@H]12)C[C@H]4COC(=O)C(C)C` are greater than 10 µg/mL, 3.64 µg/mL (≈ 8.11 µM), “Non-toxic”, 35.2% and 77.8%.
With `CC1(C)[C@H](O)CC[C@@]2(C)[C@@H]3CC[C@](C)(C(O)CO)C=C3CC[C@H]12` (stereo partly drawn), the IC50 in series [1] and in series [4] was greater than 10 µg/mL throughout. In addition, the inhibition at 10 µg/mL is 35.8% in series [2] and 21.9% in series [3].
For `C=C1C(=O)O[C@@H]2C[C@]3(C)[C@@H](CCC(C)=O)[C@@H]3C[C@H]12`, the IC50 in series [1] is greater than 10 µg/mL; in series [4] it was greater than 10 µg/mL; in series [5] (setting [7]) it was 6.4 µM. In addition, the inhibition at 10 µg/mL in series [2] came to 41.2%; in series [3], 11.2%.
As to `C[C@@]12CCC[C@@](C)(C(=O)O)[C@H]1CC[C@]13C[C@H](CO)[C@@H](CC[C@H]12)C3`, the IC50 in series [1] is 3.72 µg/mL (≈ 11.6 µM); in series [4], greater than 10 µg/mL. For the same compound, the Activity entry in series [6] was “Non-toxic”. Besides, the results for the inhibition at 10 µg/mL in series [2] and in series [3] were 89.5% and 45.9%, respectively.
Consider `CC1=CC(=O)CC(C)(C)[C@@]1(O)/C=C/C(C)O` (stereo partly drawn), for which the results for the IC50 in series [1], in series [4] and in series [5] (raw264.7) were greater than 10 µg/mL, greater than 10 µg/mL and “Not Active”, respectively. The inhibition at 10 µg/mL turned out to be 3.57% in series [2] and 3.42% in series [3].
Regarding `C=C(C)C(=O)O[C@H]1[C@H]2C(=C)C(=O)O[C@@H]2/C=C(\CO)CC/C=C(/C=O)[C@H]1OCC`, the IC50 in series [1] was 6.46 µg/mL (≈ 16.5 µM); in series [4], greater than 10 µg/mL; in series [5] (setting [7]) it was 6.8 µM. Further, the Activity result in series [6] is reported as “Non-toxic”. For the same compound, the inhibition at 10 µg/mL in series [2] was found to be 72.4%; in series [3], 22.3%.
On to `C[C@@]1(CO)C[C@@H](O)C[C@@]2(C)[C@@H]3CC[C@](C)(C(O)CO)C=C3CC[C@H]12` (stereo partly drawn), for which the IC50 in series [1] and in series [4] was greater than 10 µg/mL each time. The values for the inhibition at 10 µg/mL in series [2] and in series [3] were 7.88% and 6.78%, respectively.
For `COC(=O)[C@]1(C)CCC[C@@]2(C)[C@@H]3CC[C@@H]4C[C@@]3(CC[C@@H]21)C[C@@H]4CO`, the figures for the IC50 in series [1] and in series [4] were 5.22 µg/mL (≈ 15.6 µM) and greater than 10 µg/mL, respectively. In addition, the Activity entry in series [6] is on record as “Toxic”. Further, the figures for the inhibition at 10 µg/mL in series [2] and in series [3] were 90.7% and 27.7%, respectively.
In the same order, the values of `CC(=O)OC[C@@]1(C(=O)O)CCC[C@@]2(C)[C@@H]3CC[C@H]4C[C@@]3(CC[C@H]12)C[C@@]4(O)COC(=O)C(C)C` are greater than 10 µg/mL, 6.82 µg/mL (≈ 14.7 µM), “Non-toxic”, 46.7% and 60.4%.
For `C=C1C(=O)O[C@@H]2C[C@]3(C)[C@@H](CCC(C)O)[C@@H]3C[C@H]12` (stereo partly drawn), the IC50 is greater than 10 µg/mL in series [1], greater than 10 µg/mL in series [4] and 18.9 µM in series [5] (setting [7]). Moreover, the values for the inhibition at 10 µg/mL in series [2] and in series [3] were 11.6% and 39%, respectively.
Turning to `C[C@@]12CCC[C@@](CO)(C(=O)O)[C@H]1CC[C@]13C[C@@H](CO)[C@@H](CC[C@H]12)C3`, the IC50 in series [1] and in series [4] was greater than 10 µg/mL throughout. The inhibition at 10 µg/mL is 7.81% in series [2] and 15.7% in series [3].
In the case of `CC1(C)[C@H]2CCC3=C[C@@](C)(C(O)CO)CC[C@H]3[C@]2(C)CC[C@H]1O[C@@H]1O[C@H](CO)[C@@H](O)[C@H](O)[C@H]1O` (stereo partly drawn), the IC50 in series [1] and in series [4] was greater than 10 µg/mL in each case. For the same compound, the figures for the inhibition at 10 µg/mL in series [2] and in series [3] were 5.86% and 5.93%, respectively.
With `C[C@@]12CCC[C@@](C)(C(=O)O)[C@H]1CC[C@@]13C[C@H](CC[C@H]12)[C@@](O)(CO)C3`, the IC50 in series [1] worked out at 3.63 µg/mL (≈ 10.8 µM); in series [4] it was 4.34 µg/mL (≈ 12.9 µM). Also, the Activity result in series [6] is “Non-toxic”. In addition, the inhibition at 10 µg/mL in series [2] came out at 89.2%; in series [3] it was 70.8%.
In the same order, the values of `CC(C)C(=O)OC[C@@H]1C[C@@]23CC[C@@H]4[C@](CO)(C(=O)O)CCC[C@@]4(C)[C@@H]2CC[C@H]1C3` are 6.74 µg/mL (≈ 16.6 µM), 4.73 µg/mL (≈ 11.6 µM), “Non-toxic”, 67% and 83.2%.
As to `CC(=O)OC[C@@]1(C(=O)O)CCC[C@@]2(C)[C@@H]3CC[C@H]4C[C@@]3(CC[C@H]12)C[C@@]4(O)CO`, the IC50 in series [1] and in series [4] was greater than 10 µg/mL in each case. Further, the inhibition at 10 µg/mL in series [2] was found to be 32.1%; in series [3] it was 37%.
As to `C=C1C(=O)O[C@H]2C[C@@H](C)[C@@H]3CC[C@H](O)[C@@]3(C)C[C@H]12` [PSEUDOGUAIANOLIDE], the IC50 in series [1] was greater than 10 µg/mL; in series [4], greater than 10 µg/mL; in series [5] (setting [7]) it was 14.9 µM. The figures for the inhibition at 10 µg/mL in series [2] and in series [3] were 17% and 46.9%, respectively.
On to `C[C@@]12C[C@H](O)C[C@@](C)(C(=O)O)[C@H]1CCC1=C[C@@](C)(C(O)CO)CC[C@H]12` (stereo partly drawn), for which the IC50 in series [1] and in series [4] was greater than 10 µg/mL throughout. Further, the results for the inhibition at 10 µg/mL in series [2] and in series [3] were 5.18% and 7.65%, respectively.
`CC(=O)OCC(O)[C@]1(C)C=C2CC[C@@H]3C(C)(C)[C@H](O[C@@H]4O[C@H](CO)[C@@H](O)[C@H](O)[C@H]4O)CC[C@@]3(C)[C@@H]2CC1` (stereo partly drawn): the IC50 in series [1] and in series [4] was greater than 10 µg/mL in each case. Moreover, the inhibition at 10 µg/mL in series [2] is 8.87%; in series [3], 4.44%.
For the compound `CC1(C)OCC([C@]2(C)C=C3CC[C@@H]4[C@](C)(CO)C[C@@H](O)C[C@@]4(C)[C@@H]3CC2)O1` (stereo partly drawn), the IC50 in series [1] and in series [4] was greater than 10 µg/mL each time. Moreover, the inhibition at 10 µg/mL in series [2] is 38.4%; in series [3], 21.8%.
For `O=c1cc(N2CCOCC2)oc2c(-c3ccccc3)cccc12` [LY-294002], the IC50 in series [1] is 0.4 µg/mL (≈ 1.3 µM); in series [4], 0.92 µg/mL (≈ 2.99 µM).
With `C[C@@]1(CO)CC(=O)C[C@@]2(C)[C@@H]3CC[C@](C)(C(O)CO)C=C3CC[C@H]12` (stereo partly drawn), the IC50 in series [1] and in series [4] was greater than 10 µg/mL each time. The inhibition at 10 µg/mL is 10.2% in series [2] and -0.75% in series [3].

The values are drawn from ChEMBL document CHEMBL3352285, “In vitro anti-inflammatory effects of diterpenoids and sesquiterpenoids from traditional Chinese medicine Siegesbeckia pubescens” (Bioorg Med Chem Lett, 2014).
